Source: patent US9856279B2 (AGIOS PHARMACEUTICALS, INC, priority 2011, dated 2018)

How the values were obtained:
IDH1 R132H = IDH1 R132H (Homo sapiens, UniProt O75874, R132H); test: Assay for IDH1 R132H inhibitors (NADPH/aKG, resazurin detection); type: biochemical; settings: enzyme assay of Example 12; read-out: IDH1R132H IC50
Outline: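 Read-out is resorufin fluorescence (Ex544/Em590) 5 min after adding a 30 μM resazurin detection mix. Before that, mutant enzyme (0.2 μg/ml in its mix) ran 50 min at room temperature with compound, 8 uM NADPH and 2 mM aKG (mix levels) in Tris pH 7.5 with NaCl, MgCl2, BSA.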

HT1080 cells = test: Cellular assay for IDH1m inhibitors: inhibition of 2-HG production (LC-MS, 48 hours) in HT1080 cells; type: cell-based; settings: Homo sapiens, HT-1080; inhibition of 2-HG production, HT1080 cells; read-out: HT1080 IC50
Outline: (§1)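 Each cell line is plated at 5000 cells/well in DMEM with 10% FBS and left overnight at 37 °C. Test compounds are then added for 48 h, after which 2-HG in the medium is determined by LC-MS; IC50 reflects 50% reduction compared with control.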

U87MG cells = test: Cellular assay for IDH1m inhibitors: inhibition of 2-HG production (LC-MS, 48 hours) in U87MG cells; type: cell-based; settings: Homo sapiens, U-87 MG, inhibition of 2-HG production, U87R132H cells; read-out: U87R132H IC50
Outline: as §1

Chain of IDH1 R132H (O75874 whole entry R132H): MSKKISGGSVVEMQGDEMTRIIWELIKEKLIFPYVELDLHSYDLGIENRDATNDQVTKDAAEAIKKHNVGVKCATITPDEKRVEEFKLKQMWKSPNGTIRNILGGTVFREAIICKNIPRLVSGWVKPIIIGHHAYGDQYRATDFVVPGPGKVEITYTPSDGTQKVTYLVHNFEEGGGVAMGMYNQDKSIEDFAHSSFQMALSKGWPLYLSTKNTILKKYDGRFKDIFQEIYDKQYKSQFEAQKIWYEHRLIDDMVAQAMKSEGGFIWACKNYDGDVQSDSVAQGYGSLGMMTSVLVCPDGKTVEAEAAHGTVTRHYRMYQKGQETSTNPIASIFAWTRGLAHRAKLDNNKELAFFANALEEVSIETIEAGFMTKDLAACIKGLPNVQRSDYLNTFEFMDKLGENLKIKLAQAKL

Structure (SMILES)	IC50 (IDH1 R132H)	IC50 (HT1080 cells)	IC50 (U87MG cells)
C=Cc1cnc2c(-c3cc(C#N)c(N4CCN(C(=O)CCO)[C@H](C)C4)nc3C3CC3)cccc2n1 [Compound 618, (R)-6-cyclopropyl-2-(4-(3-hydroxypropanoyl)-3-methylpiperazin-1-yl)-5-(2-vinylquinoxalin-5-yl)nicotinonitrile]	< 0.5 µM	< 0.5 µM	< 0.5 µM
COCCC(=O)N1CCN(c2nc(C3CC3)c(-c3ccc4ncccc4c3)cc2C#N)C[C@H]1C [Compound 353, (R)-6-cyclopropyl-2-[4-(3-methoxy-propionyl)-3-methyl-piperazin-1-yl]-5-quinolin-6-yl-nicotinonitrile]	< 0.5 µM	0.5 to 1 µM	0.5 to 1 µM
C=Cc1cc(Nc2cc(C#N)c(N3CCN(C(=O)COC)[C@H](C(C)C)C3)nc2C2CC2)ccn1 [Compound 743, (R)-6-cyclopropyl-2-(3-isopropyl-4-(2-methoxyacetyl)piperazin-1-yl)-5-((2-vinylpyridin-4-yl)amino)nicotinonitrile]	< 0.5 µM	< 0.5 µM	< 0.5 µM
COCCC(=O)N1CCN(c2nc(C3CC3)c(-c3ccnc(Cl)c3)cc2C#N)C[C@H]1C [Compound 401, (R)-2′-chloro-2-cyclopropyl-6-(4-(3-methoxypropanoyl)-3-methylpiperazin-1-yl)-3,4′-bipyridine-5-carbonitrile]	0.5 to 1 µM	1 to 10 µM	1 to 10 µM
C=Cc1cc(Cc2cc(C#N)c(N3CCN(C(=O)CCO)[C@H](C4CC4)C3)nc2C2CC2)ccn1 [Compound 697, (R)-6-cyclopropyl-2-(3-cyclopropyl-4-(3-hydroxypropanoyl)piperazin-1-yl)-5-((2-vinylpyridin-4-yl)methyl)nicotinonitrile]	< 0.5 µM	< 0.5 µM	< 0.5 µM
COCCC(=O)N1CCN(c2nc(C3CC3)c(Nc3ccnc(C#N)c3)cc2C#N)C[C@H]1C [Compound 660, (R)-4-(5-cyano-2-cyclopropyl-6-(4-(3-methoxypropanoyl)-3-methylpiperazin-1-yl)pyridin-3-ylamino)picolinonitrile]	< 0.5 µM	< 0.5 µM	< 0.5 µM
COCCC(=O)N1CCN(c2nc(C3CC3)c(OC(C)c3ccccc3)cc2C#N)C[C@H]1C (stereo partly drawn) [Compound 277, 6-cyclopropyl-2-((R)-4-(3-methoxypropanoyl)-3-methylpiperazin-1-yl)-5-(1-phenylethoxy)nicotinonitrile]	< 0.5 µM	1 to 10 µM	1 to 10 µM
C#CC(=O)N1CC=C(c2cc(C#N)c(N3CCN(C(=O)C4CC4)[C@H](C)C3)nc2C2CC2)C1 [Compound 610, (R)-2-(4-(cyclopropanecarbonyl)-3-methylpiperazin-1-yl)-6-cyclopropyl-5-(1-propioloyl-2,5-dihydro-1H-pyrrol-3-yl)nicotinonitrile]	< 0.5 µM	< 0.5 µM	< 0.5 µM
C=Cc1ncc2c(-c3cc(C#N)c(N4CCN(C(=O)C5CC5)[C@H](C5CC5)C4)nc3C3CC3)cccc2n1 [Compound 636, (R)-2-(4-(cyclopropanecarbonyl)-3-cyclopropylpiperazin-1-yl)-6-cyclopropyl-5-(2-vinylquinazolin-5-yl)nicotinonitrile]	< 0.5 µM	< 0.5 µM	< 0.5 µM
COCCC(=O)N1CCN(c2nc(C3CC3)c(-c3cccc4c[n+]([O-])ccc34)cc2C#N)C[C@H]1C [Compound 420, (R)-5-(5-cyano-2-cyclopropyl-6-(4-(3-methoxypropanoyl)-3-methylpiperazin-1-yl)pyridin-3-yl)isoquinoline 2-oxide]	< 0.5 µM	1 to 10 µM	1 to 10 µM
C=CS(=O)(=O)N(c1cccc(-c2cc(C#N)c(N3CCN(C(=O)C4CC4)[C@H](C4CC4)C3)nc2C2CC2)c1)S(=O)(=O)C=C [Compound 452, (R)—N-(3-(5-cyano-6-(4-(cyclopropanecarbonyl)-3-cyclopropylpiperazin-1-yl)-2-cyclopropylpyridin-3-yl)phenyl)-N-(vinylsulfonyl)ethenesulfonamide]	< 0.5 µM	1 to 10 µM	1 to 10 µM
COCCC(=O)N1CCN(c2nc(C3CC3)c(-c3ccc(N)cc3)c(C)c2C#N)C[C@H]1C [Compound 411, (R)-5-(4-aminophenyl)-6-cyclopropyl-2-(4-(3-methoxypropanoyl)-3-methylpiperazin-1-yl)-4-methylnicotinonitrile]	< 0.5 µM	0.5 to 1 µM	0.5 to 1 µM
C=Cc1cc(-c2c(C3CC3)nc(N3CCN(C(=O)CCOC)[C@H](C4CC4)C3)c(C#N)c2C)cnn1 [Compound 749, (R)-6-cyclopropyl-2-(3-cyclopropyl-4-(3-methoxypropanoyl)piperazin-1-yl)-4-methyl-5-(6-vinylpyridazin-4-yl)nicotinonitrile]	< 0.5 µM	< 0.5 µM	< 0.5 µM
COCCC(=O)N1CCN(c2nc(C3CC3)c(-c3cccc(CNS(C)(=O)=O)c3)c(C)c2C#N)C[C@H]1C [Compound 335, (R)—N-(3-{5-cyano-2-cyclopropyl-6-[4-(3-methoxy-propionyl)-3-methyl-piperazin-1-yl]-4-methyl-pyridin-3-yl}-benzyl)-methanesulfonamide]	< 0.5 µM	0.5 to 1 µM	< 0.5 µM
C=Cc1cnc2c(-c3cc(C#N)c(N4CCN(C(=O)CCOC)[C@H](C)C4)nc3C3CC3)cccc2n1 [Compound 579, (R)-6-cyclopropyl-2-(4-(3-methoxypropanoyl)-3-methylpiperazin-1-yl)-5-(2-vinylquinoxalin-5-yl)nicotinonitrile]	< 0.5 µM	< 0.5 µM	< 0.5 µM
C=Cc1ncc2c(-c3cc(C#N)c(N4CCN(C(=O)CCO)[C@H](C)C4)nc3C3CC3)cccc2n1 [Compound 652, (R)-6-cyclopropyl-2-(4-(3-hydroxypropanoyl)-3-methylpiperazin-1-yl)-5-(2-vinylquinazolin-5-yl)nicotinonitrile]	< 0.5 µM	< 0.5 µM	< 0.5 µM
C=CS(=O)(=O)Nc1cccc(-c2cc(C#N)c(N3CCN(C(=O)C4CC4)[C@H](C4CC4)C3)nc2C2CC2)c1 [Compound 451]	< 0.5 µM	1 to 10 µM	1 to 10 µM
C=Cc1cc(-c2cc(C#N)c(N3CCN(C(=O)CCO)[C@H](C(C)C)C3)nc2C2CC2)ccn1 [Compound 721, (R)-2-cyclopropyl-6-(4-(3-hydroxypropanoyl)-3-isopropylpiperazin-1-yl)-2′-vinyl-3,4′-bipyridine-5-carbonitrile]	< 0.5 µM	< 0.5 µM	< 0.5 µM
COCCC(=O)N1CCN(c2nc(C3CC3)c(-c3cc4ccccc4nc3Cl)cc2C#N)C[C@H]1C [Compound 360, (R)-5-(2-chloro-quinolin-3-yl)-6-cyclopropyl-2-[4-(3-methoxy-propionyl)-3-methyl-piperazin-1-yl]-nicotinonitrile]	< 0.5 µM	1 to 10 µM	1 to 10 µM
C=Cc1cc(Nc2cc(C#N)c(N3CCN(C(=O)CCO)[C@H](C4CC4)C3)nc2C2CC2)c2ccncc2n1 [Compound 722, (R)-6-cyclopropyl-2-(3-cyclopropyl-4-(3-hydroxypropanoyl)piperazin-1-yl)-5-((2-vinyl-1,7-naphthyridin-4-yl)amino)nicotinonitrile]	< 0.5 µM	< 0.5 µM	< 0.5 µM
C=Cc1cc(-c2c(C3CC3)nc(N3CCN(C(=O)CCOC)[C@H](C)C3)c(C#N)c2C)ccn1 [Compound 628, (R)-2-cyclopropyl-6-(4-(3-methoxypropanoyl)-3-methylpiperazin-1-yl)-4-methyl-2′-vinyl-[3,4′-bipyridine]-5-carbonitrile]	< 0.5 µM	< 0.5 µM	< 0.5 µM
COCCC(=O)N1CCN(c2nc(C3CC3)c(-c3ccc(F)cc3)c(C)c2C#N)C[C@H]1C1CC1 [Compound 299, (R)-6-cyclopropyl-2-(3-cyclopropyl-4-(3-methoxypropanoyl)piperazin-1-yl)-5-(4-fluorophenyl)-4-methylnicotinonitrile]	< 0.5 µM	0.5 to 1 µM	0.5 to 1 µM
C=Cc1cc(-c2cc(C#N)c(N3CCN(C(=O)COC)[C@H](C4CC4)C3)nc2C2CC2)cnn1 [Compound 715, (R)-6-cyclopropyl-2-(3-cyclopropyl-4-(2-methoxyacetyl)piperazin-1-yl)-5-(6-vinylpyridazin-4-yl)nicotinonitrile]	< 0.5 µM	< 0.5 µM	< 0.5 µM
C=Cc1ccnc(Nc2cc(C#N)c(N3CCN(C(=O)CCOC)[C@H](C4CC4)C3)nc2C2CC2)c1 [Compound 706, (R)-6-cyclopropyl-2-(3-cyclopropyl-4-(3-methoxypropanoyl)piperazin-1-yl)-5-((4-vinylpyridin-2-yl)amino)nicotinonitrile]	< 0.5 µM	< 0.5 µM	< 0.5 µM
C=Cc1cnnc(-c2c(C3CC3)nc(N3CCN(C(=O)CCO)[C@H](C4CC4)C3)c(C#N)c2C)c1 [Compound 767, (R)-6-cyclopropyl-2-(3-cyclopropyl-4-(3-hydroxypropanoyl)piperazin-1-yl)-4-methyl-5-(5-vinylpyridazin-3-yl)nicotinonitrile]	< 0.5 µM	< 0.5 µM	< 0.5 µM
COCCC(=O)N1CCN(c2nc(C3CC3)c(Oc3ccnc(Cl)c3)cc2C#N)C[C@H]1C1CC1 [Compound 695, (R)-5-((2-chloropyridin-4-yl)oxy)-6-cyclopropyl-2-(3-cyclopropyl-4-(3-methoxypropanoyl)piperazin-1-yl)nicotinonitrile]	< 0.5 µM	< 0.5 µM	< 0.5 µM
